{
  "source": "patent US11040223B2",
  "about": "“Compositions and methods related to xCT peptides” (AGILVAX, INC., priority 2015, dated 2021)",
  "key": {"tumorspheres": {"test_system": "tumorspheres", "experiment": "Tumorsphere generation after SASP or xCT siRNAs", "type": "cell-based, mouse", "conditions": "spheres counted 5 days later (SASP)", "experimental": "FIG. 4A-4H. xCT regulates CSC self-renewal and the intracellular redox balance. A and B, MTT assay of the cytotoxic effect exerted by scalar doses of SASP or by anti-xCT siRNAs on TUBO (A) and tumorspheres (B). (C) Sphere generation ability relative to untreated cells of tumorspheres incubated with SASP. (D) Sphere generation ability of tumorspheres incubated with siRNAs to xCT, scrambled siRNAs, or not at all shown as tumorsphere number/10^3 plated cells. (E) and (F) FACS analysis of xCT and CSC marker expression in spheres 24 hours after transfection with siRNAs to xCT or scrambled siRNAs. (E) histograms show xCT expression; open histograms show the background of negative control IgG stained cells from one representative experiment. (F) relative expression (%) of xCT^+, Sca-1^+, and CD44^high/CD24^low cells in tumorsphere-derived cells transfected with siRNAs to xCT (black bars) compared with cells transfected with scrambled siRNAs (dashed line). G and H, GSH (G) and ROS (H) levels in TUBO cells and their derived tumorspheres after either seeding in normal conditions, transfection with siRNAs to xCT, or scrambled siRNAs over three independent experiments. *, P<0.05; **, P<0.01;***, P<0.001, Student t test. […]\nDissociated tumorspheres were cultured with scalar doses of SASP or its diluent DMSO (Sigma-Aldrich), and the total number of tumorspheres/well was counted 5 days later."}, "[1]": {"conditions": "in vivo; cited from earlier work"}, "[2]": {"conditions": "physiological conditions; cited from earlier work"}, "xCT": {"target": "T1, xCT (Homo sapiens, UniProt Q9UPY5)", "T1 sequence (Q9UPY5 1-501)": "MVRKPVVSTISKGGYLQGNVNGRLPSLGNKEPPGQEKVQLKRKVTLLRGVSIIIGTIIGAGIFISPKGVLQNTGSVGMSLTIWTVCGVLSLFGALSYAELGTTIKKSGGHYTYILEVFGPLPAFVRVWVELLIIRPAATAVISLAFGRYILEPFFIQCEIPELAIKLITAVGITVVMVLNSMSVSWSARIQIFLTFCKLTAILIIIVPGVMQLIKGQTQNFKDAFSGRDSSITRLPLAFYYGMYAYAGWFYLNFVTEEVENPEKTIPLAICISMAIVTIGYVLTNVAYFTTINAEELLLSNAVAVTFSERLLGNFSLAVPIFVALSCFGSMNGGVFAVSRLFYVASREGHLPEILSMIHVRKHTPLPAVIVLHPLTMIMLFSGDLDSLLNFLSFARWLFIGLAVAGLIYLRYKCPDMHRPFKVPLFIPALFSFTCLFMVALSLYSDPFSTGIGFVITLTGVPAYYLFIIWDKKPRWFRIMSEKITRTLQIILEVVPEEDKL", "T1 sequence (P08195 1-529 partner)": "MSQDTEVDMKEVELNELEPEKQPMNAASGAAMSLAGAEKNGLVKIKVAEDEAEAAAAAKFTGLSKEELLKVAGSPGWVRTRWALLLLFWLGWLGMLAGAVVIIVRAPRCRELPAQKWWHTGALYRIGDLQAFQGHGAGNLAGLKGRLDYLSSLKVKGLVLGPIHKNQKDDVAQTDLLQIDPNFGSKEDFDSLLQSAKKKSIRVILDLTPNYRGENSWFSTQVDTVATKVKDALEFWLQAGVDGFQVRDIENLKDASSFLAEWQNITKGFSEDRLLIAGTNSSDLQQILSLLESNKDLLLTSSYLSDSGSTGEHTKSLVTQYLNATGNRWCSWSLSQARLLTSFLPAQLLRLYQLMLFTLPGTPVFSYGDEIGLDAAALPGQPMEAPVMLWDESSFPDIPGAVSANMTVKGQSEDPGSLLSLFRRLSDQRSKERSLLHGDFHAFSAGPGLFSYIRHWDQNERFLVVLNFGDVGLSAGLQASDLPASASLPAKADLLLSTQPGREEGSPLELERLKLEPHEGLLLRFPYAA", "conditions": "animal models; cited from earlier work"}, "TUBO cells": {"test_system": "TUBO cells", "experiment": "MTT in vitro cytotoxicity on TUBO cells", "type": "cell-based, mouse", "conditions": "72 hours", "experimental": "(§1) A MTT test was performed on TUBO cells and tumorspheres that had either been treated or not with scalar doses of xCT inhibitor SASP. […] On the contrary, xCT overexpression increases colony generating ability, as confirmed by the higher number of colonies generated in soft agar by NIH/3T3 and HEK-293 cells transfected with xCT when compared with the corresponding cells transfected with empty plasmids.\n(§2) Twenty-four hours after TUBO cells and tumorspheres seeding in 96-well plates, scalar doses of doxorubicin or sulfasalazine (SASP; Sigma-Aldrich) were added and incubated at 37° C. for 72 hours. Cytotoxicity was evaluated with MTT using the Cell Proliferation Kit I (Roche Diagnostics)."}, "[3]": {"test_system": "TUBO-derived tumorspheres", "experiment": "MTT in vitro cytotoxicity on tumorspheres", "type": "cell-based", "conditions": "Mus musculus, 72 hours, read-out: IC50, tumorsphere viability (MTT)", "experimental": "as §1, §2"}, "[4]": {"test_system": "HCC-1806 derived tumorspheres", "experiment": "FACS binding of immune sera from VLP immunized mice to tumorspheres", "type": "cell-based, human", "conditions": "sera (1:50) of mice immunized with VLPs 3 times at 2 week intervals; passage 2 HCC-1806 tumorspheres", "experimental": "FIG. 1A-1B. xCT VLPs elicit antibodies that bind to tumorspheres. Immune sera (1:50) from xCT or control (MS2) VLP immunized mice were incubated with HCC-1806 derived tumorspheres. A FITC conjugated anti mouse IgG was used to detect sera antibodies bound to the cells. (A) FACS analysis of the percentage of tumorsphere cells that bound to the immune sera. As a positive control for xCT binding, we used a commercially available xCT polyclonal antibody. (B) Immunofluorescence analysis showing antibody binding to a tumorsphere from an xCT ECD 6 immunized mouse. Cell nuclei are stained with DAPI.\nTo determine if xCT VLP vaccination generated antibodies that could bind to breast cancer stem cells, sera from animals immunized with VLPs 3 times at 2 week intervals were incubated with passage 2 tumorspheres from the human cell line HCC-1806."}, "[5]": {"test_system": "TUBO-derived tumorspheres", "experiment": "Growth of s.c. tumors from TUBO-derived tumorspheres in vaccinated BALB/c mice", "conditions": "treated at 2 mm mean diameter, repeated the week later", "description": "TUBO-derived tumorspheres were s.c. implanted into BALB/c mice that were vaccinated when tumors reached 2 or 4 mm mean diameter to evaluate whether xCT immune-targeting hinders breast cancer growth (FIG. 6A-6D).\nFemale 6- to 8-week-old wild-type (Charles River Laboratories) and Ig μ-chain gene knocked out (BALB-μIgKO) BALB/c mice were maintained at the Molecular Biotechnology Center, University of Torin, and treated in accordance with the University Ethical Committee and European guidelines under Directive 2010/63. Vaccination, performed either before or after tumor challenge, consisted of two intramuscular electroporations at 2 weeks interval, of pVAX1 or pVAX1-xCT plasmids.\nPrimary s.c. tumors were induced by injecting 1×10^4 TUBO or 4T1 tumorsphere-derived cells."}, "[6]": {"test_system": "mouse tubo-derived tumorspheres", "experiment": "Lung metastases in VLP immunized mice injected i.v. with tumorspheres", "type": "in vivo", "conditions": "5×10^4 tumorspheres i.v., lungs 20 days later, vs MS2 control VLPs", "experimental": "FIG. 2. […] Mice immunized with xCT or MS2 control VLPs were injected (i.v) with 5×10^4 mouse tubo-derived tumorspheres. 20 days later, animals were euthanized and lungs were removed, section and the number of metastatic foci were measured. The number of mice were MS2 (n=2), xCT ECD3 (n=5), xCT ECD5 (n=5) and xCT ECD6 (n=4). Metastatic lesions were counted from two lung sections per animal. Data presented is the average number of lesions per slide. Two-tailed student t test was used to determine significance. ** indicates a p-value <0.01.\nInhibition of xCT function by a […] vaccine inhibits the number of metastatic lesions in the lung by 40% in a well characterized breast cancer stem cell transplantation model."}},
  "data": [
    {"compound": "O=C(O)c1cc(/N=N/c2ccc(S(=O)(=O)Nc3ccccn3)cc2)ccc1O", "note": "[SASP, sulfasalazine]", "values": [
      {"measurement": "tumorsphere generation", "setting": "tumorspheres", "value": "impaired tumorsphere generation"},
      {"measurement": "bioavailability", "setting": "[1]", "value": "low bioavailability"},
      {"measurement": "stability and solubility", "setting": "[2]", "value": "labile and insoluble under physiological conditions"},
      {"measurement": "metastatic foci", "setting": "xCT", "value": "significant decreases in metastatic foci"},
      {"measurement": "IC50", "setting": "TUBO cells; Mus musculus, TUBO cells, read-out: IC50, cell viability (MTT)", "value": "126 ± 25.7", "unit": "µM"},
      {"measurement": "IC50", "setting": "[3]", "value": "51.6 ± 3.5", "unit": "µM"}
    ]},
    {"compound": "xCT ECD3: MS2 VLP displaying extracellular domain 3 of human xCT in the AB loop of the coat protein (MQLIKGQTQNFKDAFSGRDSSITR; displayed on MS2 VLP coat protein AB loop; listed as Homo sapiens)", "values": [
      {"measurement": "antibody response: immune sera antibodies binding to tumorspheres by FACS", "setting": "[4]", "value": "generated antibodies against xCT that were able to bind to human breast cancer cells as well as a commercially available xCT antibody"}
    ]},
    {"compound": "COc1cccc2c1C(=O)c1c(O)c3c(c(O)c1C2=O)C[C@@](O)(C(=O)CO)C[C@@H]3O[C@H]1C[C@H](N)[C@H](O)[C@H](C)O1", "note": "[doxorubicin]", "values": [
      {"measurement": "mice with tumor regression", "setting": "[5]", "value": 25, "unit": "%"},
      {"measurement": "sensitivity of TUBO cells compared with tumorspheres (MTT)", "setting": "TUBO cells; scalar doses", "value": "higher sensitivity"}
    ]},
    {"compound": "xCT ECD6: MS2 VLP displaying extracellular domain 6 of human xCT in the AB loop of the coat protein (YSDPFS; displayed on MS2 VLP coat protein AB loop; listed as Homo sapiens)", "values": [
      {"measurement": "antibody response: immune sera antibodies binding to tumorspheres by FACS", "setting": "[4]", "value": "generated antibodies against xCT that were able to bind to human breast cancer cells as well as a commercially available xCT antibody"},
      {"measurement": "reduction of the number of metastases in the lung", "setting": "[6]", "value": "~60", "unit": "%"}
    ]}
  ]
}
